According to patent publication US20150217004A1, “CARBAMATE COMPOUNDS AND METHODS OF USE IN DISEASES OF THE NERVOUS SYSTEM” (priority 2012, published 2015):

Experiments:
[1] = test system: BuChE; assay: In vitro autoradiography with human tissues (Alzheimer's disease or cognitively normal); assay type: binding; settings: 3.7 MBq, 18 hours at 37° C., maleate buffer pH 6.8, FIG. 3
Experimental: Human tissue from Alzheimer's disease or cognitively normal individuals was obtained from the Maritime Brain Tissue Bank (Halifax, Canada). These tissues were adjacent […] sections through areas such as the orbitofrontal cortex. The tissues were mounted on glass slides, in maleate buffer pH 6.8, and gently heated on a slide warmer until firmly adhered. The mounted tissue was rehydrated twice for 5 min, in maleate buffer pH 6.8, before placed in a coplin jar. Nine sections occupied each jar. 25 mL of maleate buffer pH 6.8 containing Phenyl 4-([^123I]iodo)phenylcarbamate (3.7 MBq) was added to the coplin jar and the tissue incubated for 18 hours at 37° C. with gentle agitation. At the completion of incubation, the tissue was rinsed twice for 1 min in distilled water and the slides dried on a slide wanner. The tissue was exposed to a high resolution phosphorimaging screen (GE Healthcare) for 22.5 hours. The screen was scanned with a typhoon 9400 imager (GE Healthcare) to produce the autoradiogram. Image contrast was adjusted with Adobe Photoshop CS5.

[2] = biological target: T1, human serum BuChE (Homo sapiens, UniProt P06276); assay: Esterase activity assay (Ellman), enzyme deactivation over time, BuChE; assay type: biochemical; settings: FIG. 2
T1 construct: 0.05 units of purified human serum BuChE; from tissue; host or cells: human serum
Experimental: (§1) The ability of the compounds to inhibit cholinesterases was evaluated by Ellman's spectrophotometric method (Ellman, G. L., Courtney, K. D., Andres, V. Jr. and Featherstone, R. M. A new and rapid colorimetric determination of acetylcholinesterase activity. Biochemical Pharmacology, 7, 88-95 (1961)) using human recombinant AChE and. acetylthiocholine as the substrate, and human serum BuChE with butyrylthiocholine as the substrate.
(§2) To test for enzyme deactivation over time, loss of enzyme activity was monitored. Briefly, 1.35 mL of buffered DTNB solution (pH 8.0), 0.05 mL of enzyme (0.03 units of human recombinant AChE or 0.05 units of purified human serum BuChE in 0.1% aqueous gelatin containing 0.01% sodium azide) and 0.05 mL of the carbamate dissolved in 50% aqueous acetonitrile at 0.5-5 mM, depending on solubility, were combined in a stoppered cuvette of 1 cm path length. After mixing and bringing the absorbance to zero, 0.05 mL of 4.8 mM aqueous acetyl- or butyrylthiocholine substrate solution was added to the cuvette after incubation of the enzyme with carbamate and buffered DTNB for periods of 30 min or longer. A zero-time sample was also obtained by adding enzyme last to initiate reaction and the second-order rate constants for enzyme deactivation (ka values) were determined. The ka value was calculated by plotting ln (e0/et)/[I] against time, where e0 is the enzymatic activity at time zero (without preincubation of enzyme and inhibitor), et is the enzymatic activity at time t min of preincubation, and [I] is the molar concentration of inhibitor. The slope of this plot gave the second-order rate constant. Experiments were generally done at least in triplicate and the values averaged.

[3] = biological target: human recombinant AChE (Homo sapiens, UniProt P22303); assay: Esterase activity assay (Ellman), enzyme deactivation over time, AChE; assay type: biochemical; settings: FIG. 2
Experimental: as §1, §2

Sequence of human recombinant AChE (P22303 32-614): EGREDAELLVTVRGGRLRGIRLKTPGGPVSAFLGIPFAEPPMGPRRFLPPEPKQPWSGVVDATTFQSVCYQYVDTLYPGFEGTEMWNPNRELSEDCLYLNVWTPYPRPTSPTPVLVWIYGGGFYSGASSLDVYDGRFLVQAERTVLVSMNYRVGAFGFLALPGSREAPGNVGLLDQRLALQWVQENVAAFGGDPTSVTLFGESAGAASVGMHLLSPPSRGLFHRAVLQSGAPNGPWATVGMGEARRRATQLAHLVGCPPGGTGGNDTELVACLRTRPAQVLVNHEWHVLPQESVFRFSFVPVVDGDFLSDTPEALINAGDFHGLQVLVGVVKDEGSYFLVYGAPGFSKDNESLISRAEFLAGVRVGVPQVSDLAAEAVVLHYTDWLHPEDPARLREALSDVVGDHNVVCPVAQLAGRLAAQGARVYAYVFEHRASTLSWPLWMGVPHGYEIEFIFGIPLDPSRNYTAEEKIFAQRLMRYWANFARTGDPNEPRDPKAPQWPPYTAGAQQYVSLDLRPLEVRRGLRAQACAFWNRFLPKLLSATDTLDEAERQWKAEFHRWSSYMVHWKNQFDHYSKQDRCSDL
T1 sequence (P06276 29-602): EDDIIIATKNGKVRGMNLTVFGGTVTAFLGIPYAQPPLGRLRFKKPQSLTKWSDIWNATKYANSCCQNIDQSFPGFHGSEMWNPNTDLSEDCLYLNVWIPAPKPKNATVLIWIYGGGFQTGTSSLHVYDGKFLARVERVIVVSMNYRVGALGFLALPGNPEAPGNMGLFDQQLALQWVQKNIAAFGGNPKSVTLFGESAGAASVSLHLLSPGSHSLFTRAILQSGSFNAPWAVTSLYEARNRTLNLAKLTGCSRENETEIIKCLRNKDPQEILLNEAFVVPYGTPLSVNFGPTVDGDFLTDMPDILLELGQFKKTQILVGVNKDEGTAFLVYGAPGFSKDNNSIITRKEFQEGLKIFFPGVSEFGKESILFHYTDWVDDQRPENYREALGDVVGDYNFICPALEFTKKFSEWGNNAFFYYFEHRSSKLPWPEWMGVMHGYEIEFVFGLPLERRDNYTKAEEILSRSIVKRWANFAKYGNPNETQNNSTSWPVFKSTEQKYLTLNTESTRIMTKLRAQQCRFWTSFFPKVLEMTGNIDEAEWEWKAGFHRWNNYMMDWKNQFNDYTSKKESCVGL

**Q.** Which “autoradiography: distinction of normal, normal-with-Aβ-plaques and AD brain tissue” value [1] does the source give for `O=C(Nc1ccc([123I])cc1)Oc1ccccc1` [Phenyl 4-([^123I]iodo)phenylcarbamate] here?
**A.** Its value is “normal-with-Aβ-plaques and AD brain tissue can be distinguished”.

**Q.** With `O=C(Nc1ccc(F)cc1)Oc1ccccc1` as the compound, how does the melting point read?
**A.** The melting point was 160 to 161 °C.

**Q.** Which “effect on esterase activity (inhibition)” value [2] does the source give for `O=C(Nc1ccc(I)cc1)Oc1ccccc1` [phenyl 4-(iodo)phenylcarbamate, Phenyl 4-(iodo)phenylcarbamate] here?
**A.** The value was “clearly has inhibitory effects”.

**Q.** What about the “persistence of interaction (ligand bound to enzyme)” value [2] of the same compound?
**A.** Its value is “persisted for hours”.

**Q.** And the “rate of enzymatic deactivation” value [2]?
**A.** Its value is “proceeded rapidly”.

**Q.** And the “effect on esterase activity (inhibition)” value [3]?
**A.** Its value is “clearly has inhibitory effects”.

**Q.** And the “persistence of interaction (ligand bound to enzyme)” value [3]?
**A.** The value was “persisted for hours”.

**Q.** What about the “rate of enzymatic deactivation” value [3] of the same compound?
**A.** Its value is “proceeded rapidly”.
